What was measured:
Bacillus [1] = test: Antimicrobial activity against Bacillus at 50 ug/disk after 48 hrs; format: functional; settings: read-out: IZ
Flavobacterium [2] = test: Antimicrobial activity against Flavobacterium at 50 ug/disk after 48 hrs; format: functional; settings: read-out: IZ
Alteromonas = test: Antimicrobial activity against Alteromonas at 50 ug/disk after 48 hrs; format: functional; settings: read-out: IZ
Flavobacterium [3] = test: Antimicrobial activity against Flavobacterium at 10 ug/disk after 48 hrs; format: functional; settings: read-out: IZ
Vibrio = test: Antimicrobial activity against Vibrio at 50 ug/disk after 48 hrs; format: functional; settings: read-out: IZ
Corynebacterium [4] = test: Antimicrobial activity against Corynebacterium at 50 ug/disk after 48 hrs; format: functional; settings: read-out: IZ
Carassius auratus = test: Toxicity against goldfish at 500 ug; format: organism-based; settings: in vivo
Bacillus [5] = test: Antimicrobial activity against Bacillus at 10 ug/disk after 48 hrs; format: functional; settings: read-out: IZ
Corynebacterium [6] = test: Antimicrobial activity against Corynebacterium at 10 ug/disk after 48 hrs; format: functional; settings: read-out: IZ

Brc1c[nH]c(Br)c1Br
2 mm: zone of inhibition at 10 µg/disc (Flavobacterium [3]) | zone of inhibition at 10 µg/disc (Bacillus [5]) | zone of inhibition at 10 µg/disc (Corynebacterium [6])
> 5 mm: zone of inhibition at 50 µg/disc (Bacillus [1]) | zone of inhibition at 50 µg/disc (Flavobacterium [2]) | zone of inhibition at 50 µg/disc (Alteromonas) | zone of inhibition at 50 µg/disc (Vibrio) | zone of inhibition at 50 µg/disc (Corynebacterium [4])
Non-toxic: Activity (Carassius auratus)

— ChEMBL document CHEMBL1158907, “2,3,4-Tribromopyrrole from the Marine Polychaete Polyphysia crassa” (J Nat Prod, 1990)
